Results on 20 compounds are retold here after patent publication US8012998B2, “Pyrrolidine aryl-ether as NK-3 receptor antagonists” (Hoffmann—LA Roche Inc., priority 2007, dated 2011).

This assay addresses T1, human NK3 receptor (Homo sapiens, UniProt P29371).
T1 construct: expressed in transfected cells; host or cells: HEK293 cells (transient expression), membrane preparation
T1 sequence (P29371 1-465): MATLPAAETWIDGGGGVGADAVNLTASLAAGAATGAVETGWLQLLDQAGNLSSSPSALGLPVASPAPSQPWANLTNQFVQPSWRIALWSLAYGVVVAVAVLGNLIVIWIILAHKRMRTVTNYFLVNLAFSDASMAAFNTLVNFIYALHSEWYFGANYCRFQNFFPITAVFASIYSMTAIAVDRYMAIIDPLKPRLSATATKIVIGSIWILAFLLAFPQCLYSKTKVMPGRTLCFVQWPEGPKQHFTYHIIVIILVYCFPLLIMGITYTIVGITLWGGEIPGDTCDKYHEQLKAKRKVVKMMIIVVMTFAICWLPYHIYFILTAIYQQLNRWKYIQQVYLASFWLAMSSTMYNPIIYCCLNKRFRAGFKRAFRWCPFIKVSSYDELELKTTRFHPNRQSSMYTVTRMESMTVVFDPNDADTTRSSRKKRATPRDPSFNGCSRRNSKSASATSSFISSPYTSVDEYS
In words: [3H]SR142801 competition binding assay (hNK3 receptor binding). As to conditions: [3H]SR142801 radioligand; membranes from HEK293 cells transiently expressing recombinant human NK3 receptor; Ki by Cheng-Prussoff; read-out: KiNK3 h. An outline of the steps:
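Competition binding with [3H]SR142801 on membranes of HEK293 cells transiently expressing human NK3, 5 μg protein/well, in Tris-HCl/MnCl2/phosphoramidon/BSA buffer pH 7.4. Nonspecific binding defined with 10 μM SB222200; filtration then scintillation counting. IC50 from Hill fit was converted to Ki by Cheng-Prusoff; duplicate, mean ± SEM.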
Regarding `Cc1cc(C(=O)N2C[C@H]([C@H](C)Oc3ccc(C#N)cn3)[C@@H](c3ccc(F)c(F)c3)C2)cnn1` [Example 106, 6-{(S)-1-[(3R,4S)-4-(3,4-Difluoro-phenyl)-1-(6-methyl-pyridazine-4-carbonyl)-pyrrolidin-3-yl]-ethoxy}-nicotinonitrile], the Ki was 0.0309 µM. Turning to `Cc1cc(C(=O)N2C[C@H]([C@H](C)Oc3ccc(Cl)cn3)[C@@H](c3ccc(Cl)c(F)c3)C2)cnn1` [Example 107, {(3S,4R)-3-(4-Chloro-3-fluoro-phenyl)-4-[(S)-1-(5-chloro-pyridin-2-yloxy)-ethyl]-pyrrolidin-1-yl}-(6-methyl-pyridazin-4-yl)-methanone], the Ki was 0.0026 µM. Regarding `Cc1cc(C(=O)N2C[C@H]([C@H](CO)Oc3ccc(Cl)cn3)[C@@H](c3ccc(F)c(F)c3)C2)cnn1` [Example 116, [(3R,4S)-3-[(R)-1-(5-Chloro-pyridin-2-yloxy)-2-hydroxy-ethyl]-4-(3,4-difluoro-phenyl)-pyrrolidin-1-yl]-(6-methyl-pyridazin-4-yl)-methanone], the Ki is 0.028 µM.

With `Cc1cc(C(=O)N2C[C@H]([C@H](C)Oc3ccc(Cl)cn3)[C@@H](c3ccc(F)cc3)C2)cnn1` [Example 115, [(3R,4S)-3-[(S)-1-(5-Chloro-pyridin-2-yloxy)-ethyl]-4-(4-fluoro-phenyl)-pyrrolidin-1-yl]-(6-methyl-pyridazin-4-yl)-methanone], the Ki was found to be 0.004 µM. In the case of `Cc1cc(C(=O)N2C[C@H]([C@H](C)Oc3ccc(C#N)cn3)[C@@H](c3ccc(F)c(F)c3)C2)c(C)nn1` [Example 114, 6-{(S)-1-[(3R,4S)-4-(3,4-Difluoro-phenyl)-1-(3,6-dimethyl-pyridazine-4-carbonyl)-pyrrolidin-3-yl]-ethoxy}-nicotinonitrile] it was 0.0854 µM. Under `Cc1ncc(C(=O)N2C[C@H]([C@H](C)Oc3ccc(Cl)cn3)[C@@H](c3ccc(Cl)c(F)c3)C2)cn1` [Example 90, {(3S,4R)-3-(4-Chloro-3-fluoro-phenyl)-4-[(S)-1-(5-chloro-pyridin-2-yloxy)-ethyl]-pyrrolidin-1-yl}-(2-methyl-pyrimidin-5-yl)-methanone] stands 0.011 µM; under `C[C@H](Oc1ccc(C#N)cn1)[C@H]1CN(C(=O)c2ccc(-n3cccn3)nc2)C[C@@H]1c1ccc(Cl)c(Cl)c1` (racemic) [Example 65, 6-{(SR)-1-[(3RS,4SR)-4-(3 ,4-Dichloro-phenyl)-1-(6-pyrazol-1-yl-pyridine-3-carbonyl)-pyrrolidin-3-yl]-ethoxy}-nicotinonitrile], 0.0026 µM; under `C[C@H](Oc1ccc(C#N)cn1)[C@H]1CN(C(=O)c2ccc(-c3nnco3)cc2)C[C@@H]1c1ccc(Cl)c(Cl)c1` (racemic) [Example 63, 6-{(SR)-1[-(3RS,4SR)-4-(3,4-Dichloro-phenyl)-1-(4-[1,3,4]oxadiazol-2-yl-benzoyl)-pyrrolidin-3-yl]-ethoxy}-nicotinonitrile], 0.0021 µM. Regarding `Cc1ncc(C(=O)N2CC(C(C)Oc3ccc(Cl)cn3)[C@H](c3ccc(Cl)c(Cl)c3)C2)cn1` (stereo in doubt) [Example 41, [(3S,4R)-3-[(R)-1-(5-Chloro-pyridin-2-yloxy)-ethyl]-4-(3,4-dichloro-phenyl)-pyrrolidin-1-yl]-(2-methyl-pyrimidin-5-yl)-methanone], the Ki is 0.0664 µM. `C[C@@H](Oc1ccc(Cl)cn1)[C@@H]1CN(C(=O)c2ccc(CCN3CCCC3)nc2)C[C@H]1c1ccc(Cl)c(Cl)c1` (racemic) [Example 46, [(3SR,4RS)-3-[(RS)-1-(5-Chloro-pyridin-2-yloxy)-ethyl]-4-(3,4-dichloro-phenyl)-pyrrolidin-1-yl]-[6-(2-pyrrolidin-1-yl-ethyl)-pyridin-3-yl]-methanone]: the Ki is 0.0019 µM. For the compound `Cc1ncc(C(=O)N2C[C@H]([C@H](C)Oc3ccc(C(F)(F)F)cn3)[C@@H](c3ccc(Cl)c(Cl)c3)C2)cn1` (racemic) [Example 79, {(3SR,4RS)-3-(3,4-Dichloro-phenyl)-4-[(SR)-1-(5-trifluoromethyl-pyridin-2-yloxy)-ethyl]-pyrrolidin-1-yl}-(2-methyl-pyrimidin-5-yl)-methanone], the Ki was determined as 0.0272 µM. For `C[C@H](Oc1ccc(C(F)(F)F)cn1)[C@H]1CN(C(=O)c2cnc(C3CC3)nc2)C[C@@H]1c1ccc(Cl)c(Cl)c1` (racemic) [Example 85, (2-Cyclopropyl-pyrimidin-5-yl)-{(3SR,4RS)-3-(3,4-dichloro-phenyl)-4-[(SR)-1-(5-trifluoromethyl-pyridin-2-yloxy)-ethyl]-pyrrolidin-1-yl}-methanone], the Ki is 0.0075 µM. Turning to `Cc1ccc(C(=O)N2C[C@@H]([C@@H](C)Oc3ccc(C(F)(F)F)cc3)[C@H](c3ccc(Cl)c(Cl)c3)C2)cn1` (racemic) [Example 6, {(3RS,4SR)-3-(3,4-Dichloro-phenyl)-4-[(RS)-1-(4-trifluoromethyl-phenoxy)-ethyl]-pyrrolidin-1-yl}-(6-methyl-pyridin-3-yl)-methanone], the Ki is 0.0636 µM. In the case of `CC(=O)Nc1ccc(C(=O)N2C[C@@H]([C@@H](C)Oc3ccc(Cl)cn3)[C@@H](c3ccc(Cl)c(Cl)c3)C2)cn1` (racemic) [Example 38], the Ki was determined as 0.0156 µM. For the compound `Cc1cc(C(=O)N2C[C@H]([C@H](C)Oc3ccc(Cl)cn3)[C@@H](c3ccc(F)c(F)c3)C2)c(C)nn1` [Example 113, [(3R,4S)-3-[(S)-1-(5-Chloro-pyridin-2-yloxy)-ethyl]-4-(3,4-difluoro-phenyl)-pyrrolidin-1-yl]-(3,6-dimethyl-pyridazin-4-yl)-methanone], the Ki turned out to be 0.0177 µM. In the case of `C[C@@H](Oc1ccc(C(F)(F)F)cc1)[C@@H]1CN(C(=O)c2ccc(C#N)cc2)C[C@H]1c1ccc(Cl)c(Cl)c1` (racemic) [Example 2, 4-{(3RS,4SR)-3-(3,4-Dichloro-phenyl)-4-[(RS)-1-(4-trifluoromethyl-phenoxy)-ethyl]-pyrrolidine-1-carbonyl}-benzonitrile], the Ki is 0.0355 µM. Turning to `C[C@H](Oc1ccc(C#N)cn1)[C@H]1CN(C(=O)c2ccc(-c3cnco3)cc2)C[C@@H]1c1ccc(Cl)c(Cl)c1` (racemic) [Example 59, 6-{(SR)-1-[(3RS,4SR)-4-(3,4-Dichloro-phenyl)-1-(4-oxazol-5-yl-benzoyl)-pyrrolidin-3-yl]-ethoxy}-nicotinonitrile], the Ki was determined as 0.0021 µM.

As for `C[C@@H](Oc1ccc(Cl)cn1)[C@@H]1CN(C(=O)c2ccc(CN(C)C)cc2)C[C@H]1c1ccc(Cl)c(Cl)c1` (racemic) [Example 42, [(3SR,4RS)-3-[(RS)-1-(5-Chloro-pyridin-2-yloxy)-ethyl]-4-(3,4-dichloro-phenyl)-pyrrolidin-1-yl]-(4-dimethylaminomethyl-phenyl)-methanone], the Ki was 0.0255 µM. For `Cc1cc(C(=O)N2C[C@H]([C@H](C)Oc3ccc(C#N)cn3)[C@@H](c3ccc(Cl)c(Cl)c3)C2)c(Cl)nn1` (racemic) [Example 78, 6-{(SR)-1-[(3RS,4SR)-1-(3-Chloro-6-methyl-pyridazine-4-carbonyl)-4-(3,4-dichloro-phenyl)-pyrrolidin-3-yl]-ethoxy}-nicotinonitrile], the Ki turned out to be 0.0272 µM. For `C[C@H](Oc1ccc(C#N)cn1)[C@H]1CN(C(=O)c2ccc(F)nc2)C[C@@H]1c1ccc(Cl)c(Cl)c1` (racemic) [Example 75, 6-{(SR)-1-[(3RS,4SR)-4-(3,4-Dichloro-phenyl)-1-(6-fluoro-pyridine-3-carbonyl)-pyrrolidin-3-yl]-ethoxy}-nicotinonitrile], the Ki is 0.0336 µM.
